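Values below derive from 48-hour exposures of cells grown in 96-well plates, with endpoints linearly interpolated between the two concentrations bracketing the appropriate inhibition level. GI50 = concentration required for 50% inhibition of growth. TGI: concentration producing complete growth inhibition.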
Assays:
Assay in all cases: growth of human tumour cells (NCI), 48 h
K-562 leukemia = test system: K-562 leukemia
CCRF-CEM leukemia = test system: CCRF-CEM leukemia
TK-10 renal = test system: TK-10 renal
OVCAR-8 ovarian = test system: OVCAR-8 ovarian
OVCAR-4 ovarian = test system: OVCAR-4 ovarian
NCI-H23 lung = test system: NCI-H23 lung
NCI-H460 lung = test system: NCI-H460 lung
SK-MEL-2 melanoma = test system: SK-MEL-2 melanoma
NCI/ADR-RES ovarian = test system: NCI/ADR-RES ovarian
HS 578T breast = test system: HS 578T breast

O=c1[nH]c(=O)c2ncn(-c3ccc([N+](=O)[O-])cn3)c2[nH]1
TGI (K-562 leukemia): > 100 µM
TGI (CCRF-CEM leukemia): > 100 µM
TGI (TK-10 renal): > 100 µM
TGI (OVCAR-8 ovarian): > 100 µM
TGI (OVCAR-4 ovarian): > 100 µM
TGI (NCI-H23 lung): > 100 µM
TGI (NCI-H460 lung): > 100 µM
TGI (SK-MEL-2 melanoma): > 100 µM
TGI (NCI/ADR-RES ovarian): > 100 µM

COC(C/C(=C/CO[Si](C(C)C)(C(C)C)C(C)C)C(=O)N(C(=O)OC(C)(C)C)c1ccccc1I)OC
TGI (HS 578T breast): > 100 µM
TGI (K-562 leukemia): > 100 µM
TGI (TK-10 renal): > 100 µM
TGI (OVCAR-8 ovarian): > 100 µM
TGI (OVCAR-4 ovarian): > 100 µM
TGI (NCI-H23 lung): > 100 µM
TGI (NCI-H460 lung): > 100 µM
TGI (SK-MEL-2 melanoma): 37.5 µM
TGI (NCI/ADR-RES ovarian): > 100 µM

Cc1c(Cc2ccccc2)n(C(C)OCCN(OC(=O)Oc2ccccc2)C(=O)Oc2ccccc2)c(=O)[nH]c1=O (stereo not drawn)
TGI (HS 578T breast): 42.6 µM
TGI (K-562 leukemia): 93.5 µM
TGI (CCRF-CEM leukemia): 50 µM
TGI (OVCAR-8 ovarian): 34.7 µM
TGI (OVCAR-4 ovarian): 42.8 µM
TGI (NCI-H23 lung): 31 µM
TGI (NCI-H460 lung): 32.7 µM
TGI (SK-MEL-2 melanoma): 37.2 µM
TGI (NCI/ADR-RES ovarian): 39.1 µM

COc1cc(C2S/C(=C/c3ccccc3)C(=O)N2Cc2ccccc2)cc(OC)c1OC (stereo not drawn)
TGI (HS 578T breast): > 100 µM
TGI (K-562 leukemia): > 100 µM
TGI (CCRF-CEM leukemia): 87.2 µM
TGI (TK-10 renal): > 100 µM
TGI (OVCAR-8 ovarian): > 100 µM
TGI (OVCAR-4 ovarian): > 100 µM
TGI (NCI-H23 lung): > 100 µM
TGI (SK-MEL-2 melanoma): > 100 µM
TGI (NCI/ADR-RES ovarian): > 100 µM

O=C(NC(=S)Nc1ccc([N+](=O)[O-])cc1)c1ccc2c(c1)Sc1ccccc1O2
TGI (HS 578T breast): 79 µM
TGI (K-562 leukemia): > 100 µM
TGI (CCRF-CEM leukemia): > 100 µM
TGI (TK-10 renal): > 100 µM
TGI (OVCAR-8 ovarian): > 100 µM
TGI (NCI-H23 lung): > 100 µM
TGI (NCI-H460 lung): > 100 µM
TGI (SK-MEL-2 melanoma): > 100 µM
TGI (NCI/ADR-RES ovarian): > 100 µM

CC[C@@]1(O)C[C@H](OC2CC(N(C)C)C(O)C(C)O2)c2c(cc3c(c2O)C(=O)c2c(O)ccc(O)c2C3=O)[C@H]1C(=O)OC (stereo partly drawn)
TGI (K-562 leukemia): 0.472 µM
TGI (CCRF-CEM leukemia): 0.603 µM
TGI (OVCAR-8 ovarian): 0.643 µM
TGI (OVCAR-4 ovarian): 0.0918 µM
TGI (NCI-H23 lung): 0.599 µM
TGI (NCI-H460 lung): 0.12 µM
TGI (SK-MEL-2 melanoma): 0.354 µM
TGI (NCI/ADR-RES ovarian): 0.619 µM

Cc1cc2c(c(C(=O)NCC(=O)N[C@@H](C)C(=O)OCc3ccccc3)c1)Oc1c(cc(C)cc1C(=O)NCC(=O)N[C@@H](C)C(=O)OCc1ccccc1)S2
TGI (HS 578T breast): 80.1 µM
TGI (K-562 leukemia): > 100 µM
TGI (CCRF-CEM leukemia): > 100 µM
TGI (OVCAR-8 ovarian): > 100 µM
TGI (OVCAR-4 ovarian): > 100 µM
TGI (NCI-H23 lung): > 100 µM
TGI (NCI-H460 lung): > 100 µM
TGI (SK-MEL-2 melanoma): > 100 µM
TGI (NCI/ADR-RES ovarian): > 100 µM

COc1ccc2c(c1)N(Cc1ccc(Cl)cc1)CCC2N1CCCC1=O (stereo not drawn)
GI50 (HS 578T breast): 2.76 µM
TGI (HS 578T breast): 26.5 µM
GI50 (K-562 leukemia): 4.6 µM
TGI (K-562 leukemia): > 100 µM
GI50 (CCRF-CEM leukemia): 4.74 µM
TGI (CCRF-CEM leukemia): > 100 µM
GI50 (TK-10 renal): 6.98 µM
TGI (TK-10 renal): 60.9 µM
GI50 (OVCAR-8 ovarian): 4.6 µM
TGI (OVCAR-8 ovarian): 57.3 µM
GI50 (NCI-H23 lung): 4.37 µM
TGI (NCI-H23 lung): 57.2 µM
GI50 (NCI-H460 lung): 4.22 µM
TGI (NCI-H460 lung): > 100 µM
GI50 (SK-MEL-2 melanoma): 6 µM
TGI (SK-MEL-2 melanoma): 28.8 µM
GI50 (NCI/ADR-RES ovarian): 3.72 µM
TGI (NCI/ADR-RES ovarian): 49.6 µM

O=c1[nH]c2ccccc2c(O)c1Cc1ccccc1
TGI (HS 578T breast): > 100 µM
TGI (K-562 leukemia): > 100 µM
TGI (CCRF-CEM leukemia): > 100 µM
TGI (TK-10 renal): > 100 µM
TGI (OVCAR-8 ovarian): > 100 µM
TGI (OVCAR-4 ovarian): > 100 µM
TGI (NCI-H23 lung): > 100 µM
TGI (NCI-H460 lung): > 100 µM
TGI (NCI/ADR-RES ovarian): > 100 µM

CN1CCN(C(=O)CCC(=O)Nc2cc3c(c4ccccc24)-c2ccc4ccccc4c2C3)CC1
TGI (HS 578T breast): 5.81 µM
TGI (TK-10 renal): 3.27 µM
TGI (OVCAR-8 ovarian): 4.38 µM
TGI (OVCAR-4 ovarian): 3.08 µM
TGI (NCI-H23 lung): 3.47 µM
TGI (NCI-H460 lung): 3.72 µM
TGI (SK-MEL-2 melanoma): 3.65 µM
TGI (NCI/ADR-RES ovarian): 4.55 µM

COC1OCC(O)C(NC(=O)N(C)N=O)C1O (stereo not drawn)
TGI (K-562 leukemia): > 100 µM
TGI (CCRF-CEM leukemia): > 100 µM
TGI (OVCAR-8 ovarian): > 100 µM
TGI (OVCAR-4 ovarian): > 100 µM
TGI (NCI-H23 lung): > 100 µM
TGI (NCI-H460 lung): > 100 µM
TGI (SK-MEL-2 melanoma): > 100 µM
TGI (NCI/ADR-RES ovarian): > 100 µM

Nn1c(Nc2ccc(S(N)(=O)=O)cc2)nnc(/C=C/c2c(O)ccc3ccccc23)c1=O
TGI (HS 578T breast): > 100 µM
TGI (K-562 leukemia): 34.5 µM
TGI (CCRF-CEM leukemia): 18.8 µM
TGI (OVCAR-8 ovarian): 22.6 µM
TGI (OVCAR-4 ovarian): 47.5 µM
TGI (NCI-H23 lung): 22.4 µM
TGI (NCI-H460 lung): 96.2 µM
TGI (SK-MEL-2 melanoma): > 100 µM
TGI (NCI/ADR-RES ovarian): 54 µM

CCCCCCSc1nc(N)nc2nc[nH]c12
TGI (K-562 leukemia): > 100 µM
TGI (CCRF-CEM leukemia): > 100 µM
TGI (OVCAR-8 ovarian): > 100 µM
TGI (OVCAR-4 ovarian): > 100 µM
TGI (NCI-H23 lung): > 100 µM
TGI (NCI-H460 lung): > 100 µM
TGI (SK-MEL-2 melanoma): > 100 µM
TGI (NCI/ADR-RES ovarian): > 100 µM

Cc1ccc(S(=O)(=O)N2CCC[C@@H]2C(=O)O[C@@H]2CCC3CC=CC32)cc1 (stereo partly drawn)
TGI (HS 578T breast): 87.5 µM
TGI (K-562 leukemia): > 100 µM
TGI (CCRF-CEM leukemia): > 100 µM
TGI (TK-10 renal): > 100 µM
TGI (OVCAR-8 ovarian): > 100 µM
TGI (OVCAR-4 ovarian): > 100 µM
TGI (NCI-H23 lung): > 100 µM
TGI (NCI-H460 lung): > 100 µM
TGI (NCI/ADR-RES ovarian): 63.2 µM

CN(C)CCNC(=O)c1cccc2ccc(-c3ccc(Br)cc3)nc12
TGI (K-562 leukemia): 9.2 µM
TGI (CCRF-CEM leukemia): 7.75 µM
TGI (OVCAR-8 ovarian): 4.76 µM
TGI (OVCAR-4 ovarian): 8.5 µM
TGI (NCI-H23 lung): 13.6 µM
TGI (NCI-H460 lung): 2.77 µM
TGI (SK-MEL-2 melanoma): 9.25 µM
TGI (NCI/ADR-RES ovarian): 5.89 µM

N#Cc1c(N)oc(-c2ccc([N+](=O)[O-])cc2)c1C#N
TGI (HS 578T breast): 82.8 µM
TGI (CCRF-CEM leukemia): > 100 µM
TGI (TK-10 renal): 76.8 µM
TGI (OVCAR-8 ovarian): 52.2 µM
TGI (NCI-H23 lung): 57.2 µM
TGI (SK-MEL-2 melanoma): 64.2 µM
TGI (NCI/ADR-RES ovarian): 44 µM

CC(=O)C(=O)NC1/C=C(C)\C=C/C(O)C/C=C(C)\C=C/C(O)CC2OC(=O)C1(C)C(=O)C2C (stereo not drawn)
TGI (K-562 leukemia): > 100 µM
TGI (CCRF-CEM leukemia): > 100 µM
TGI (OVCAR-8 ovarian): > 100 µM
TGI (OVCAR-4 ovarian): > 100 µM
TGI (NCI-H23 lung): > 100 µM
TGI (NCI-H460 lung): > 100 µM
TGI (SK-MEL-2 melanoma): > 100 µM
TGI (NCI/ADR-RES ovarian): > 100 µM

COC1/C=C/C=C(/C)Cc2cc(O)c(Cl)c(c2)N(C)C(=O)CC(OC(=O)C(C)C)C2(C)OC2C(C)C2CC1(O)NC(=O)O2 (stereo not drawn)
TGI (HS 578T breast): > 100 µM
TGI (K-562 leukemia): > 100 µM
TGI (CCRF-CEM leukemia): > 100 µM
TGI (TK-10 renal): > 65.2 µM
TGI (OVCAR-8 ovarian): > 100 µM
TGI (OVCAR-4 ovarian): < 0.01 µM
TGI (NCI-H23 lung): < 0.01 µM
TGI (SK-MEL-2 melanoma): > 43.6 µM

Nc1nc(Cl)cc(OCC2(CO)CCCC2)n1
TGI (HS 578T breast): > 100 µM
TGI (K-562 leukemia): > 100 µM
TGI (CCRF-CEM leukemia): > 100 µM
TGI (TK-10 renal): > 100 µM
TGI (OVCAR-8 ovarian): > 100 µM
TGI (OVCAR-4 ovarian): > 100 µM
TGI (NCI-H23 lung): > 100 µM
TGI (NCI-H460 lung): > 100 µM
TGI (NCI/ADR-RES ovarian): > 100 µM

Clc1cc(-c2ccccc2)nc(Nc2nc3ccccc3[nH]2)n1
TGI (HS 578T breast): 80.2 µM
TGI (K-562 leukemia): 85.3 µM
TGI (CCRF-CEM leukemia): 27.6 µM
TGI (TK-10 renal): > 100 µM
TGI (OVCAR-8 ovarian): 54.2 µM
TGI (OVCAR-4 ovarian): 33 µM
TGI (NCI-H23 lung): 56 µM
TGI (NCI-H460 lung): 93.7 µM
TGI (NCI/ADR-RES ovarian): > 100 µM

CSc1cc(Cl)c(C)cc1S(=O)(=O)NC(=O)NNc1ccc(F)cc1
TGI (HS 578T breast): > 100 µM
TGI (K-562 leukemia): > 100 µM
TGI (OVCAR-8 ovarian): > 100 µM
TGI (OVCAR-4 ovarian): > 100 µM
TGI (NCI-H460 lung): > 100 µM
TGI (SK-MEL-2 melanoma): > 100 µM
TGI (NCI/ADR-RES ovarian): > 100 µM

CCOC(=O)c1nc2ccc(OC)cc2c2c1Cc1ccccc1-2
TGI (K-562 leukemia): > 100 µM
TGI (TK-10 renal): > 100 µM
TGI (OVCAR-8 ovarian): > 100 µM
TGI (OVCAR-4 ovarian): > 100 µM
TGI (NCI-H23 lung): > 100 µM
TGI (NCI-H460 lung): > 100 µM
TGI (SK-MEL-2 melanoma): > 100 µM

COc1cccc2c1NC(=O)Cc1c-2[nH]c2ccccc12
TGI (HS 578T breast): > 100 µM
TGI (K-562 leukemia): > 100 µM
TGI (CCRF-CEM leukemia): > 100 µM
TGI (TK-10 renal): > 100 µM
TGI (OVCAR-4 ovarian): > 100 µM
TGI (NCI-H23 lung): > 100 µM
TGI (NCI-H460 lung): > 100 µM
TGI (SK-MEL-2 melanoma): > 100 µM
TGI (NCI/ADR-RES ovarian): > 100 µM
